Square brackets hold non-standard residues; d marks the D form. Peptide text beside a SMILES is read from it.
Key:
[1] = Cellular uptake of the peptides; assay type: cell-based
[2] = system: BBB model in vitro (bEnd.3 cells co-cultured with U87-MG cells); test: Sodium fluorescein permeability of the in vitro BBB model; assay type: in vitro ADME; details: transwell 3 µm pore, 0.33 cm^2, bEnd.3 upper / U87-MG lower chamber; NaFl 10 µg/mL; 30, 60, 90 min; 37°C; fluorescence 485/535 nm
Description: A primary BBB model using bEnd.3 cells in vitro was established to evaluate the penetration ability of ^DTHR-Cy7-PEG-DSPE-SPIONs. The inner side of a polycarbonate transwell (Millipore, USA) with a mean pore size of 3 µm and a surface area of 0.33 cm^2 was coated with collagen. After coating, the transwell was left to air dry for 30 min. Then, bEnd.3 cells (5 × 10^4 cells per well) were seeded into the upper chamber of a 24-well transwell plate. After 48 h, 1 × 10^5 U87-MG cells were seeded in the lower chamber of each well. Both cells were co-cultured for 1 week.
The endothelial permeability coefficient of sodium fluorescein (NaFl) was used to evaluate the function of BBB model in vitro, as previously described. In brief, 200 µL NaFl solution (10 µg/mL) and 900 µL PBS were added to the upper and lower chambers of the BBB models, respectively. And then cultured in a 5% CO2 atmosphere at 37°C. Following incubation periods of 30, 60 and 90 min, 100 µL samples from the lower chambers were transferred to a new 96-well plate. […] Finally, the relative fluorescence intensity of the samples was measured using a multi-detector monochromator microplate reader (485/535 nm), with NaFl concentration deduced from a standard curve. The apparent permeability coefficient (Papp) was calculated using the formula: Papp=dQ/dt×1/(A×C0). […]

Compound | cellular uptake compared to THR [1] | Papp of NaFl, BBB model [2]
CSCC[C@@H](NC(=O)[C@@H](Cc1c[nH]c2ccccc12)NC(=O)[C@@H](CO)NC(=O)[C@H]1CCCN1C(=O)[C@H](NC(=O)[C@@H](Cc1c[nH]c2ccccc12)NC(=O)[C@H]1CCCN1C(C)=O)C(C)C)C(=O)N1CCC[C@@H]1C(=O)N1CCC[C@@H]1C(=O)N[C@H](CCCNC(=N)N)C(=O)N[C@H](Cc1c[nH]cn1)C(=O)N[C@@H](C(=O)O)[C@H](C)O [^DTHR, Ac-pwvpswmpprht-COOH] (Ac-[dP][dW][dV][dP][dS][dW][dM][dP][dP][dR][dH][dT]-OH) | lower cellular uptake | 
O=C([O-])c1ccccc1-c1c2ccc(=O)cc-2oc2cc([O-])ccc12.[Na+].[Na+] [NaFl, sodium fluorescein] |  | 11.24 ± 0.73 ×10^−6 cm/s

From article PMC10939466, “A transferrin receptor targeting dual-modal MR/NIR fluorescent imaging probe for glioblastoma diagnosis” (Regenerative Biomaterials, 2024)
